According to patent US20260027116A1, “Methods of Treating Chronic Graft-Versus-Host Disease Following Allogeneic Hematopoietic Stem Cell Transplantation” (Kadmon Corporation, LLC, priority 2022, published 2026):

Tests used:
[1] = tested on: cGVHD symptom burden; experiment: Example 1: Lee Symptom Scale (LSS) score; type: in vivo, human
Experimental: Lee Symptom Scale (LSS) summary score measures the effect on patients' functioning and well-being. The Lee Symptom Scale is a 30-item scale developed to measure the symptoms of cGVHD and is described in Lec S J, Cook E F, Soiffer R, Antin J H. Development and validation of a scale to measure symptoms of chronic graft-versushost disease. Biol Blood Marrow Transplant 2002; 8:444-452.
All responses were assessed by the investigators.
Change From Baseline in Overall Score on Lee cGvHD Symptom Scale at Specified Time Points. Lee cGVHD symptom scale, a patient-reported symptom scale used to measure symptom burden and has 7 subscales (Skin, Eyes and Mouth, Breathing, Eating and Digestion, Muscles and Joints, Energy, and Mental and Emotional) with ratings as follows: 0—Not at all, 1—Slightly, 2—Moderately, 3—Quite a bit, 4—Extremely, with lower values representing better outcome. Score for each subscale was normalized to a score ranged from 0 to 100, where higher score=worse symptoms. An overall score was calculated as average of these 7 subscales. EOT visit was performed within 3 days after the participant's last dose of study drug. Baseline value was defined as valid and last non-missing value obtained within 28 days prior to participant receiving first study medication. […] Analysis was performed on mITT population. Here, ‘number analyzed’=participants with available data for each specified category. Here, ‘0’ in the number analyzed field signifies that none of the participants were available for the analysis at the specified time points.

[2] = tested on: cGVHD symptom burden; experiment: Example 2: 7-day LSS summary score; type: in vivo, human; details: for Clinically significant improvement from baseline (LSS), Overall: decrease ≥ 7 points in LSS score
Experimental: All responses were assessed by the study site investigators.

SMILES: CC(C)NC(=O)COc1cccc(-c2nc(Nc3ccc4[nH]ncc4c3)c3ccccc3n2)c1 [Belumosudil, 2-{3-[4-(1H-indazol-5-ylamino)-2-quinazolinyl]phenoxy}-N-(propan-2-yl) acetamide]
- Change From Baseline in Overall Score on Lee cGvHD Symptom Scale, Mean (Standard Deviation) ([1]; Cohort 2: 200 mg BID, Cycle 9, Day 1): −4.2 (5.5) score on a scale
- Change From Baseline in Overall Score on Lee cGvHD Symptom Scale, Mean (Standard Deviation) ([1]; Cohort 2: 200 mg BID, Cycle 10, Day 1): −2.7 (6.1) score on a scale
- Change From Baseline in Overall Score on Lee cGvHD Symptom Scale, Mean (Standard Deviation) ([1]; Cohort 2: 200 mg BID, Cycle 11, Day 1): −5.5 (6.0) score on a scale
- Change From Baseline in Overall Score on Lee cGvHD Symptom Scale, Mean (Standard Deviation) ([1]; Cohort 2: 200 mg BID, Cycle 12, Day 1): −7.6 (7.7) score on a scale
- Change From Baseline in Overall Score on Lee cGvHD Symptom Scale, Mean (Standard Deviation) ([1]; Cohort 2: 200 mg BID, Cycle 13, Day 1): −5.9 (8.8) score on a scale
- Change From Baseline in Overall Score on Lee cGvHD Symptom Scale, Mean (Standard Deviation) ([1]; Cohort 2: 200 mg BID, Cycle 14, Day 1): −5.0 (7.3) score on a scale
- Change From Baseline in Overall Score on Lee cGvHD Symptom Scale, Mean (Standard Deviation) ([1]; Cohort 2: 200 mg BID, Cycle 15, Day 1): −6.8 (7.0) score on a scale
- Change From Baseline in Overall Score on Lee cGvHD Symptom Scale, Mean (Standard Deviation) ([1]; Cohort 2: 200 mg BID, Cycle 16, Day 1): −6.9 (7.6) score on a scale
- Change From Baseline in Overall Score on Lee cGvHD Symptom Scale, Mean (Standard Deviation) ([1]; Cohort 2: 200 mg BID, Cycle 27, Day 1): −13.2 (6.6) score on a scale
- Change From Baseline in Overall Score on Lee cGvHD Symptom Scale, Mean (Standard Deviation) ([1]; Cohort 2: 200 mg BID, Cycle 29, Day 1): −11.0 (7.3) score on a scale
- Change From Baseline in Overall Score on Lee cGvHD Symptom Scale, Mean (Standard Deviation) ([1]; Cohort 2: 200 mg BID, Cycle 31, Day 1): −15.6 (4.3) score on a scale
- Change From Baseline in Overall Score on Lee cGvHD Symptom Scale, Mean (Standard Deviation) ([1]; Cohort 2: 200 mg BID, Cycle 33, Day 1): −13.5 (9.0) score on a scale
- Change From Baseline in Overall Score on Lee cGvHD Symptom Scale, Mean (Standard Deviation) ([1]; Cohort 2: 200 mg BID, Cycle 35, Day 1): −11.0 (12.4) score on a scale
- Change From Baseline in Overall Score on Lee cGvHD Symptom Scale, Mean (Standard Deviation) ([1]; Cohort 2: 200 mg BID, Cycle 37, Day 1): −13.6 (8.1) score on a scale
- Change From Baseline in Overall Score on Lee cGvHD Symptom Scale, Mean (Standard Deviation) ([1]; Cohort 2: 200 mg BID, Cycle 39, Day 1): −14.3 (8.5) score on a scale
- Change From Baseline in Overall Score on Lee cGvHD Symptom Scale, Mean (Standard Deviation) ([1]; Cohort 2: 200 mg BID, Cycle 41, Day 1): −19.3 (—) score on a scale
- Change From Baseline in Overall Score on Lee cGvHD Symptom Scale, Mean (Standard Deviation) ([1]; Cohort 2: 200 mg BID, Cycle 43, Day 1): −19.9 (—) score on a scale
- Change From Baseline in Overall Score on Lee cGvHD Symptom Scale, Mean (Standard Deviation) ([1]; Cohort 2: 200 mg BID, Cycle 47, Day 1): −16.8 (—) score on a scale
- Change From Baseline in Overall Score on Lee cGvHD Symptom Scale, Mean (Standard Deviation) ([1]; Cohort 2: 200 mg BID, Cycle 49, Day 1): −15.4 (—) score on a scale
- Change From Baseline in Overall Score on Lee cGvHD Symptom Scale, Mean (Standard Deviation) ([1]; Cohort 2: 200 mg BID, EOT): −2.4 (10.9) score on a scale
- LSS improvement, nonresponder, n/N ([1]; Cohort 3 400 mg QD): 2/8
- LSS improvement, responder, n/N ([1]; Cohort 3 400 mg QD): 9/13
- Change From Baseline in Overall Score on Lee cGvHD Symptom Scale, Mean (Standard Deviation) ([1]; Cohort 3: 400 mg QD, Cycle 2, Day 1): −5.2 (6.3) score on a scale
- Change From Baseline in Overall Score on Lee cGvHD Symptom Scale, Mean (Standard Deviation) ([1]; Cohort 3: 400 mg QD, Cycle 3, Day 1): −4.3 (8.2) score on a scale
- Change From Baseline in Overall Score on Lee cGvHD Symptom Scale, Mean (Standard Deviation) ([1]; Cohort 3: 400 mg QD, Cycle 4, Day 1): −2.7 (8.2) score on a scale
- Change From Baseline in Overall Score on Lee cGvHD Symptom Scale, Mean (Standard Deviation) ([1]; Cohort 3: 400 mg QD, Cycle 5, Day 1): −0.5 (10.8) score on a scale
- Change From Baseline in Overall Score on Lee cGvHD Symptom Scale, Mean (Standard Deviation) ([1]; Cohort 3: 400 mg QD, Cycle 6, Day 1): −0.8 (9.3) score on a scale
- Change From Baseline in Overall Score on Lee cGvHD Symptom Scale, Mean (Standard Deviation) ([1]; Cohort 3: 400 mg QD, Cycle 7, Day 1): −2.0 (12.3) score on a scale
- Change From Baseline in Overall Score on Lee cGvHD Symptom Scale, Mean (Standard Deviation) ([1]; Cohort 3: 400 mg QD, Cycle 8, Day 1): −2.9 (10.9) score on a scale
- Change From Baseline in Overall Score on Lee cGvHD Symptom Scale, Mean (Standard Deviation) ([1]; Cohort 3: 400 mg QD, Cycle 9, Day 1): −3.6 (10.2) score on a scale
- Change From Baseline in Overall Score on Lee cGvHD Symptom Scale, Mean (Standard Deviation) ([1]; Cohort 3: 400 mg QD, Cycle 10, Day 1): −3.7 (9.9) score on a scale
- Change From Baseline in Overall Score on Lee cGvHD Symptom Scale, Mean (Standard Deviation) ([1]; Cohort 3: 400 mg QD, Cycle 11, Day 1): −4.5 (6.1) score on a scale
- Change From Baseline in Overall Score on Lee cGvHD Symptom Scale, Mean (Standard Deviation) ([1]; Cohort 3: 400 mg QD, Cycle 12, Day 1): −2.8 (6.0) score on a scale
- Change From Baseline in Overall Score on Lee cGvHD Symptom Scale, Mean (Standard Deviation) ([1]; Cohort 3: 400 mg QD, Cycle 13, Day 1): −0.6 (7.1) score on a scale
- Change From Baseline in Overall Score on Lee cGvHD Symptom Scale, Mean (Standard Deviation) ([1]; Cohort 3: 400 mg QD, Cycle 14, Day 1): −1.5 (7.7) score on a scale
- Change From Baseline in Overall Score on Lee cGvHD Symptom Scale, Mean (Standard Deviation) ([1]; Cohort 3: 400 mg QD, Cycle 15, Day 1): −3.2 (8.2) score on a scale
- Change From Baseline in Overall Score on Lee cGvHD Symptom Scale, Mean (Standard Deviation) ([1]; Cohort 3: 400 mg QD, Cycle 16, Day 1): 1.9 (7.9) score on a scale
- Change From Baseline in Overall Score on Lee cGvHD Symptom Scale, Mean (Standard Deviation) ([1]; Cohort 3: 400 mg QD, Cycle 27, Day 1): −6.0 (9.6) score on a scale
- Change From Baseline in Overall Score on Lee cGvHD Symptom Scale, Mean (Standard Deviation) ([1]; Cohort 3: 400 mg QD, Cycle 28, Day 1): 2.6 (—) score on a scale
- Change From Baseline in Overall Score on Lee cGvHD Symptom Scale, Mean (Standard Deviation) ([1]; Cohort 3: 400 mg QD, Cycle 29, Day 1): −3.7 (13.0) score on a scale
- Change From Baseline in Overall Score on Lee cGvHD Symptom Scale, Mean (Standard Deviation) ([1]; Cohort 3: 400 mg QD, Cycle 31, Day 1): −12.9 (—) score on a scale
- Change From Baseline in Overall Score on Lee cGvHD Symptom Scale, Mean (Standard Deviation) ([1]; Cohort 3: 400 mg QD, Cycle 33, Day 1): −12.9 (—) score on a scale
- Change From Baseline in Overall Score on Lee cGvHD Symptom Scale, Mean (Standard Deviation) ([1]; Cohort 3: 400 mg QD, Cycle 35, Day 1): −12.9 (—) score on a scale
- Change From Baseline in Overall Score on Lee cGvHD Symptom Scale, Mean (Standard Deviation) ([1]; Cohort 3: 400 mg QD, Cycle 39, Day 1): −12.9 (—) score on a scale
- Change From Baseline in Overall Score on Lee cGvHD Symptom Scale, Mean (Standard Deviation) ([1]; Cohort 3: 400 mg QD, Cycle 41, Day 1): −12.9 (—) score on a scale
- Change From Baseline in Overall Score on Lee cGvHD Symptom Scale, Mean (Standard Deviation) ([1]; Cohort 3: 400 mg QD, Cycle 43, Day 1): −12.9 (—) score on a scale
- Change From Baseline in Overall Score on Lee cGvHD Symptom Scale, Mean (Standard Deviation) ([1]; Cohort 3: 400 mg QD, Cycle 45, Day 1): −12.3 (—) score on a scale
- Change From Baseline in Overall Score on Lee cGvHD Symptom Scale, Mean (Standard Deviation) ([1]; Cohort 3: 400 mg QD, Cycle 47, Day 1): −12.9 (—) score on a scale
- Change From Baseline in Overall Score on Lee cGvHD Symptom Scale, Mean (Standard Deviation) ([1]; Cohort 3: 400 mg QD, Cycle 49, Day 1): −14.3 (—) score on a scale
- Change From Baseline in Overall Score on Lee cGvHD Symptom Scale, Mean (Standard Deviation) ([1]; Cohort 3: 400 mg QD, Cycle 51, Day 1): −12.9 (—) score on a scale
- Change From Baseline in Overall Score on Lee cGvHD Symptom Scale, Mean (Standard Deviation) ([1]; Cohort 3: 400 mg QD, EOT): 2.5 (11.9) score on a scale
- clinically meaningful LSS improvement on consecutive assessments, nonresponders ([1]; Example 1): 32%
- clinically meaningful LSS improvement on consecutive assessments, responders ([1]; Example 1): 37%
- LSS improvement, nonresponder, n/N ([1]; Total, N=54): 7/19
- LSS improvement, responder, n/N ([1]; Total, N=54): 20/35
- clinically significant LSS improvement, overall, % (95% CI) ([1]; Total, N=54): 50%
- clinically meaningful LSS improvement, nonresponders ([2]; 200 mg daily): 29%
- clinically meaningful LSS improvement, responders ([2]; 200 mg daily): 69%
- clinically meaningful improvement (≥7-point) in 7-day LSS summary score, mITT ([2]; 200 mg daily): 59%
- clinically meaningful LSS improvement, nonresponders ([2]; 200 mg twice daily): 33%
- clinically meaningful LSS improvement, responders ([2]; 200 mg twice daily): 71%
- clinically meaningful improvement (≥7-point) in 7-day LSS summary score, mITT ([2]; 200 mg twice daily): 62%
- Clinically significant improvement from baseline (LSS), Overall ([2]; 200 mg daily (n = 66)): 39 (59) n (%)
- Clinically significant improvement from baseline (LSS), Overall ([2]; 200 mg twice daily (n = 66)): 41 (62) n (%)
- Clinically significant improvement from baseline (LSS), Overall ([2]; Total (N = 132)): 80 (61) n (%)
